In patent publication US11840686B2, “Modulation of prekallikrein (PKK) expression” (Ionis Pharmaceuticals, Inc., priority 2013, dated 2023):
Strand notation (5' to 3'): a small letter for the sugar, then the base; units joined by * are phosphorothioate-linked, units joined directly phosphodiester-linked; [ ] holds rarer units or linkages, { } end groups; capitals alone tell only the bases. e = 2'-O-(2-methoxyethyl) (MOE); [5mC] = 5-methylcytosine; d = 2'-deoxy (DNA)

Experiments:
[1] = tested on: basal vascular permeability; test: Combination of PKK and Factor 12 antisense oligonucleotides on basal vascular permeability (Example 16); format: in vivo, mouse; settings: positive control: PBS + HOE-140 30 μg ip
Description: Mice were treated with varying doses of ISIS 410944, an antisense oligonucleotide targeting Factor 12, and ISIS 482584 in a basal vascular permeability model.
Group 1 consisted of 8 mice and was treated with PBS administered subcutaneously twice a week for 3 weeks. No other treatment was administered to Group 1 which served as a control group to measure the basal levels of vascular permeability.
Group 2 consisted of 4 mice and was treated with PBS administered subcutaneously twice a week for 3 weeks. At the end of the treatment period, the mice were intraperitoneally administered 30 μg of HOE-140. Group 2 served as a positive control for inhibition of basal vascular permeability.
Groups 3, 4, 5, 6, and 7 consisted of 8 mice each and were treated with 2.5 mg/kg, 5 mg/kg, 10 mg/kg, 20 mg/kg, or 40 mg/kg (corresponding to 5 mg/kg, 10 mg/kg, 20 mg/kg, 40 mg/kg, or 80 mg/kg per week), respectively of ISIS 482584 and ISIS 410944 each administered subcutaneously twice a week for 3 weeks. Groups 3-7 served as the experimental treatment groups for examining the effect of ISIS 410944 and ISIS 482584 on basal vascular permeability.
All the groups were then injected with 30 mg/kg of Evans Blue solution in the tail vein. The mice were sacrificed 30 min after the Evans Blue solution administration and colons, feet, ears, and intestines were harvested.
The harvested tissues from the feet, colon, intestines, and ears were placed in formamide solution overnight to leach out the Evans Blue dye. The formamide solution containing feet and ear tissue was heated to 55° C. and left overnight. Higher OD values are associated with higher levels of permeability.

[2] = tested on: PKK protein; test: PKK protein in cynomolgus monkey plasma by ELISA (Example 8); format: in vivo; settings: 40 mg/kg sc
Description: Approximately 0.9 mL of blood was collected each time from all available animals at pre-dose, day 17, day 31, day 45, day 59, and day 73, and placed in tubes containing 3.2% sodium citrate. The tubes were centrifuged (3000 rpm for 10 min at room temperature) to obtain plasma. PKK protein levels were measured in the plasma by ELISA. The results are presented in Table 52, expressed as percentage inhibition compared to the PBS control levels.

[3] = Tolerability / clinical observation of cynomolgus monkeys (Example 8); format: in vivo, cynomolgus monkey; settings: primates, Example 8
Procedure, shortened: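 Cynomolgus monkeys received ISIS antisense oligonucleotides cross-reactive with the rhesus target sequence. Animals were checked at least once daily for signs of illness or distress, and animals in poor or moribund condition were flagged for further monitoring.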

[4] = C-reactive protein and complement C3 levels in cynomolgus monkeys (Example 8); settings: cynomolgus monkey plasma, 40 mg/kg sc
[5] = Kidney function: plasma BUN and creatinine in cynomolgus monkeys (Example 8)
Description: Prior to the study, the monkeys were kept in quarantine for a 30-day period, during which the animals were observed daily for general health. The monkeys were 2-4 years old and weighed between 2 and 4 kg. Ten groups of four randomly assigned male cynomolgus monkeys each were injected subcutaneously with ISIS oligonucleotide or PBS. PBS solution or ISIS oligonucleotides at a dose of 40 mg/kg were administered initially with a loading regimen consisting of four doses on the first week of the study (days 1, 3, 5, and 7), followed by a maintenance regimen consisting of once weekly administration starting on Day 14 (weeks 2 to 13). Subcutaneous injections were performed in clock-wise rotations at 4 sites on the back; one site per dose. The injection sites were delineated by tattoo, while sedated using ketamine, and were separated by a minimum of 3 cm.
To evaluate the effect of ISIS oligonucleotides on kidney function, the monkeys were fasted overnight. Approximately, 1.5 mL of blood samples were collected from all the study groups. Blood was collected in tubes without anticoagulant for serum separation. The tubes were kept at room temperature for a minimum of 90 min and then centrifuged at 3,000 rpm for 10 min. Levels of BUN and creatinine were measured using a Toshiba 120FR NEO chemistry analyzer (Toshiba Co., Japan).

[6] = tested on: PKK protein; test: PKK protein in BALB/c mice plasma by immunoblot (Example 10); format: in vivo, mouse; settings: for % inhibition of PKK protein in BALB/c mice plasma: twice a week for 3 weeks, relative to PBS control
Description: Six groups of male BALB/c mice each were treated with 2.5 mg/kg, 5.0 mg/kg, 10.0 mg/kg, 20.0 mg/kg, 40.0 mg/kg, or 80.0 mg/kg of ISIS 482584, administered subcutaneously twice a week for 3 weeks (weekly doses of 5.0 mg/kg, 10.0 mg/kg, 20.0 mg/kg, 40.0 mg/kg, 80.0 mg/kg, or 160.0 mg/kg). A control group of BALB/c mice was treated with PBS, administered subcutaneously twice a week for 3 weeks. Two days after the last dose of antisense oligonucleotide or PBS, mice from all groups were anesthetized with 150 mg/kg ketamine mixed with 10 mg/kg xylazine, administered by intraperitoneal injection. Liver was collected for RNA analysis.
Plasma was collected in tubes containing sodium citrate as an anticoagulant. The samples were run on a 4-12% gradient SDS-polyacrylamide gel (Invitrogen), followed by immunoblotting with murine PKK antibody (R&D Systems). Blots were incubated with secondary fluorophore-labeled antibodies (LI-COR) and imaged in an Odyssey Imager (LI-COR). Results are presented as percent inhibition of PKK, relative to PBS control.

[7] = tested on: human PKK mRNA; test: Dose-dependent antisense inhibition of human PKK in HepaRG cells, 0.12-10.00 uM (Example 4); format: cell-based; settings: electroporation, ~16 h
Description: Cells were plated at a density of 20,000 cells per well and transfected using electroporation with 0.12 μM, 0.37 μM, 1.11 μM, 3.33 μM, and 10.00 μM concentrations of antisense oligonucleotide. After a treatment period of approximately 16 hours, RNA was isolated from the cells and PKK mRNA levels were measured by quantitative real-time PCR. Human PKK primer probe set RTS3454 was used to measure mRNA levels. PKK mRNA levels were adjusted according to total RNA content, as measured by RIBOGREEN®. The antisense oligonucleotides were tested in a series of experiments that had similar culture conditions. Results are presented as percent inhibition of PKK, relative to untreated control cells.
The half maximal inhibitory concentration (IC50) of each oligonucleotide is also presented.

NC(N)=NCCC[C@@H](N)C(=O)N[C@@H](CCCN=C(N)N)C(=O)N1CCC[C@H]1C(=O)N1C[C@H](O)C[C@H]1C(=O)NCC(=O)N[C@@H](Cc1cccs1)C(=O)N[C@@H](CO)C(=O)N1Cc2ccccc2C[C@@H]1C(=O)N1[C@H](C(=O)N[C@@H](CCCN=C(N)N)C(=O)O)C[C@@H]2CCCC[C@@H]21 [HOE-140, Icatibant, reference compound]
OD600 nm of Evans Blue dye, Colon [1]: 0.14
OD600 nm of Evans Blue dye, Ears [1]: 0.008
OD600 nm of Evans Blue dye, Feet [1]: 0.04
OD600 nm of Evans Blue dye, Intestines [1]: 0.08

Tes Ges mCes Aes Aes Gds Tds mCds Tds mCds Tds Tds Gds Gds mCds Aes Aes Aes mCes Ae [ISIS 546254]
PKK protein level reduction (%) in plasma relative to control levels ([2]; Day 17): 38%
PKK protein level reduction (%) in plasma relative to control levels ([2]; Day 31): 51%
PKK protein level reduction (%) in plasma relative to control levels ([2]; Day 45): 63%
PKK protein level reduction (%) in plasma relative to control levels ([2]; Day 59): 74%
PKK protein level reduction (%) in plasma relative to control levels ([2]; Day 73): 73%
tolerability in primates [3]: tolerable in primates
C3 (% of baseline) [4]: 61 % of baseline
CRP [4]: 0.8 mg/dL
Plasma BUN ([5]; 40 mg/kg s.c.): 25.7 mg/dL
Plasma Creatinine ([5]; 40 mg/kg s.c.): 0.9 mg/dL
effect on kidney function ([5]; plasma chemistry): well tolerated in terms of the kidney function

ISIS 482584: 5-10-5 MOE gapmer targeting murine PKK, GGCATATTGGTTTTTGGAAT; SEQ ID NO: 2244 (antisense eG*eG*e[5mC]*eA*eT*dA*dT*dT*dG*dG*dT*dT*dT*dT*dT*eG*eG*eA*eA*eT)
% inhibition of PKK protein in BALB/c mice plasma ([6]; 5 mg/kg/wk sc): 5%
% inhibition of PKK protein in BALB/c mice plasma ([6]; 10 mg/kg/wk sc): 24%
% inhibition of PKK protein in BALB/c mice plasma ([6]; 20 mg/kg/wk sc): 47%
% inhibition of PKK protein in BALB/c mice plasma ([6]; 40 mg/kg/wk sc): 76%
% inhibition of PKK protein in BALB/c mice plasma ([6]; 80 mg/kg/wk sc): 81%
reduction of PKK plasma protein ([6]; BALB/c mice, 2.5-80.0 mg/kg s.c. twice a week for 3 weeks, vs PBS): significant dose-dependent reduction of PKK plasma protein

531231 (eT*eA*eT*e[5mC]*eA*d[5mC]*dT*dG*dT*dA*d[5mC]*dT*dA*dG*dT*eT*eT*e[5mC]*e[5mC]*eT) [compound 531231]
percent inhibition of PKK at 0.12 μM ([7]; Table 32, 0.12 μM): 23%
percent inhibition of PKK at 0.37 μM ([7]; Table 32, 0.37 μM): 30%
percent inhibition of PKK at 1.11 μM ([7]; Table 32, 1.11 μM): 76%
percent inhibition of PKK at 3.33 μM ([7]; Table 32, 3.33 μM): 89%
percent inhibition of PKK at 10.00 μM ([7]; Table 32, 10.00 μM): 94%
IC50 ([7]; Table 32, PKK mRNA): 0.6 µM
percent inhibition of PKK at 0.12 μM ([7]; Table 33, 0.12 μM): 18%
percent inhibition of PKK at 0.37 μM ([7]; Table 33, 0.37 μM): 0%
percent inhibition of PKK at 1.11 μM ([7]; Table 33, 1.11 μM): 36%
percent inhibition of PKK at 3.33 μM ([7]; Table 33, 3.33 μM): 76%
percent inhibition of PKK at 10.00 μM ([7]; Table 33, 10.00 μM): 84%
IC50 ([7]; Table 33, PKK mRNA): 2 µM
